Results on 59 compounds are retold here after PubChem BioAssay AID743341 (Broad Institute, 2014).

Records with an inconclusive call do not appear. Active and inactive are the calls of the source.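 The calls were made as follows: active = fitted curve of myotube length rescue reaches 40% at or below the top valid tested dose in every replicate test; inconclusive = replicate tests give mixed outcomes; inactive = every replicate test inactive, including effects in the opposite direction.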

Test system in the first assay: not listed separately
As to the kind of experiment: suppression of statin-driven myotube degradation – imaging, C2C12 myotubes, MHC immunostaining, dry powder, orthogonal assay for statin myotoxicity suppressor project, confirmation (AID 743341). The conditions noted are these: C2C12 myotubes + simvastatin, MHC imaging tube length, 48 h; at 18 µM (top of the series).
`C[C@H]1CN([C@@H](C)CO)C(=O)Cc2cc(NC(=O)CCCCCC(=O)Nc3ccccc3N)ccc2O[C@H]1CN(C)Cc1ccccc1`: the rescue of myotube length is 21.7% (inactive). As for `C[C@H](CO)N1C[C@H](C)[C@H](CN(C)Cc2ccc3c(c2)OCO3)Oc2ccc(NC(=O)CCCCCC(=O)Nc3ccccc3N)cc2CC1=O`, the rescue of myotube length is 19.7% (inactive).

The same assay, now with this note: C2C12 myotubes + simvastatin, MHC imaging tube length, 48 h; at 19.5 µM (top of the series).
As to `Cc1noc(C)c1S(=O)(=O)Nc1ccc2c(c1)CC(=O)N([C@H](C)CO)C[C@H](C)[C@@H](CN(C)Cc1ccc(C(F)(F)F)cc1)O2`, the rescue of myotube length was -1.01% (inactive).

On to `N#C[C@H]1[C@@H](c2ccc(-c3cccc(F)c3)cc2)[C@@H](CO)N1C(=O)NC1CCCC1`, for which the rescue of myotube length was -4.89% (inactive). For `N#C[C@H]1[C@H](c2ccc(C#Cc3ccc(F)cc3)cc2)[C@H](CO)N1c1nc(-c2ccccc2)cs1`, the rescue of myotube length was 25.1% (inactive). For the compound `Cc1ccc(S(=O)(=O)Nc2ccc3c(c2)CC(=O)N([C@@H](C)CO)C[C@@H](C)[C@H](CN(C)Cc2ccc(-c4ccccc4)cc2)O3)cc1`, the rescue of myotube length is -2.54% (inactive). The same measure, in the same setting: the value for `COc1ccc(S(=O)(=O)N(C)C[C@H]2Oc3c(NC(=O)Nc4ccccc4)cccc3C(=O)N([C@H](C)CO)C[C@H]2C)cc1` was 3.68% (inactive). With `CN(C)C(=O)c1cccc(-c2ccc([C@@H]3[C@@H](C#N)N(C(=O)C4CCCC4)[C@@H]3CO)cc2)c1`, the rescue of myotube length was 13.3% (inactive).

With `N#C[C@@H]1[C@@H](c2ccc(-c3cccc(F)c3)cc2)[C@H](CO)N1C(=O)c1cccnc1`, the rescue of myotube length is 12.6% (inactive). Still for that read-out and setting: for `N#C[C@@H]1[C@@H](c2ccc(C#Cc3cccnc3)cc2)[C@@H](CO)N1C(=O)C1CCCC1` the value was 5.74% (inactive); for `COc1ccc(-c2ccc([C@@H]3[C@@H](C#N)N(C(=O)NC4CCCC4)[C@H]3CO)cc2)cc1`, 7.03% (inactive); for `N#C[C@@H]1[C@H](c2ccc(-c3cccc(F)c3)cc2)[C@@H](CO)N1C(=O)NC1CCCC1`, 12.9% (inactive). Still for that read-out and setting: the value for `COc1ccc(S(=O)(=O)Nc2ccc3c(c2)CC(=O)N([C@H](C)CO)C[C@@H](C)[C@H](CN(C)CC2CCCCC2)O3)cc1` was -8.93% (inactive); that for `C[C@@H]1CN([C@@H](C)CO)C(=O)c2cc(NS(=O)(=O)c3ccc(Cl)cc3)ccc2O[C@H]1CN(C)C(=O)Nc1cccc2ccccc12` was -1.68% (inactive); that for `O=C(C[C@H]1CC[C@@H]2[C@H](COC[C@H](O)CN2CCC(F)(F)F)O1)NCc1ccc(Oc2ccccc2)cc1` was 5.97% (inactive). In the case of `Cc1ccc(S(=O)(=O)N(C)C[C@@H]2Oc3ccc(NS(=O)(=O)c4ccc(Cl)cc4)cc3C(=O)N([C@H](C)CO)C[C@@H]2C)cc1`, the rescue of myotube length is 3.15% (inactive). The same measure, in the same setting: for `C[C@@H]1CN([C@H](C)CO)C(=O)Cc2cc(NS(=O)(=O)c3cn(C)cn3)ccc2O[C@@H]1CN(C)Cc1ccc(Cl)c(Cl)c1` the value was 24% (inactive). With `C[C@H]1CN([C@@H](C)CO)C(=O)c2cc(NC(=O)Nc3cccc4ccccc34)ccc2O[C@H]1CN(C)Cc1ccc(C(=O)Nc2ccccc2N)cc1`, the rescue of myotube length was 13.4% (inactive). Regarding `N#C[C@@H]1[C@@H](c2ccccc2-c2cccc(F)c2)[C@H](CO)N1C(=O)NC1CCCC1`, the rescue of myotube length was 10.7% (inactive). In the case of `CCCNC(=O)N1[C@H](CO)[C@H](c2ccccc2)[C@@H]1C#N`, the rescue of myotube length was 1.19% (inactive). With `C[C@H](CO)N1C[C@H](C)[C@@H](CN(C)Cc2ccc(Oc3ccccc3)cc2)Oc2c(NC(=O)Nc3cccc4ccccc34)cccc2C1=O`, the rescue of myotube length was 14.7% (inactive).

Regarding `COc1ccc(CN(C)C[C@H]2Oc3ccc(NS(=O)(=O)c4ccc(Cl)cc4)cc3CC(=O)N([C@@H](C)CO)C[C@@H]2C)cc1`, the rescue of myotube length is -19% (inactive). In the case of `N#C[C@@H]1[C@@H](c2ccccc2-c2ccc(F)cc2)[C@H](CO)N1C(=O)NC1CCCC1`, the rescue of myotube length was 15.4% (inactive).

Turning to `C[C@@H]1CN([C@H](C)CO)C(=O)Cc2cc(NS(=O)(=O)c3ccc(Cl)cc3)ccc2O[C@H]1CN(C)Cc1ccccc1`, the rescue of myotube length is 0.917% (inactive). The same measure, in the same setting: the value for `N#C[C@H]1[C@H](c2ccc(C#CCC3CCCC3)cc2)[C@@H](CO)N1C(=O)CN1CCOCC1` was 14.6% (inactive); that for `COc1ccc(S(=O)(=O)Nc2cccc3c2O[C@H](CN(C)C(=O)Nc2ccc(F)cc2)[C@H](C)CN([C@@H](C)CO)C3=O)cc1` was -2.59% (inactive); that for `C[C@H](CO)N1C[C@H](C)[C@@H](CN(C)Cc2ccc(Cl)c(Cl)c2)Oc2ccc(NC(=O)C3CC3)cc2CC1=O` was -6.48% (inactive). As for `CCCC#Cc1ccc([C@H]2[C@@H](C#N)N(S(=O)(=O)c3cccc(F)c3)[C@H]2CO)cc1`, the rescue of myotube length was 4.16% (inactive). On the same count and under the same terms, the value for `CCCNC(=O)N1[C@H](C#N)[C@@H](c2ccc(C3=CCCCC3)cc2)[C@@H]1CO` was 22.8% (inactive). On to `COc1ccc(S(=O)(=O)Nc2ccc3c(c2)CC(=O)N([C@H](C)CO)C[C@H](C)[C@@H](CN(C)Cc2ccc(Cl)c(Cl)c2)O3)cc1`, for which the rescue of myotube length was -14.2% (inactive). Regarding `N#C[C@H]1[C@@H](c2ccc(-c3cccc(F)c3)cc2)[C@H](CO)N1C(=O)NC1CCCC1`, the rescue of myotube length is 8.46% (inactive). Turning to `COc1ccc(C#Cc2cnc3c(c2)C(=O)N([C@H](C)CO)C[C@H](C)[C@H](CN(C)Cc2ccccc2)O3)cc1OC`, the rescue of myotube length is -10.4% (inactive). Same read-out and setting: the value for `C[C@@H]1CN([C@H](C)CO)C(=O)Cc2cc(NC(=O)CCCCCC(=O)Nc3ccccc3N)ccc2O[C@@H]1CN(C)Cc1ccc(Oc2ccccc2)cc1` was -9.32% (inactive); that for `N#C[C@H]1[C@H](c2ccc(-c3cccc(F)c3)cc2)[C@H](CO)N1C(=O)NC1CCCC1` was 14.9% (inactive); that for `COc1ccc(C#Cc2cnc3c(c2)C(=O)N([C@H](C)CO)C[C@H](C)[C@@H](CN(C)C(=O)Nc2cccc(OC)c2)O3)cc1` was 30.4% (inactive). For `O=C(C[C@H]1CC[C@@H]2[C@H](COC[C@@H](O)CN2Cc2ccc(Oc3ccccc3)cc2)O1)N1CCCCC1`, the rescue of myotube length is 15.6% (inactive).

On to `N#C[C@@H]1[C@@H](c2ccc(C3=CCCCC3)cc2)[C@H](CO)N1C(=O)NC1CCCC1`, for which the rescue of myotube length was 9.82% (inactive).

Turning to `CN1C(=O)c2cc(NC(=O)c3ccc(F)c(F)c3)ccc2OC[C@H]2O[C@@H](CC(=O)Nc3ccc4c(c3)COC4)CC[C@@H]21`, the rescue of myotube length is 12.6% (inactive). Take `C/C=C/c1ccc([C@H]2[C@@H](CO)N(C(=O)NC3CCCC3)[C@H]2C#N)cc1`: the rescue of myotube length was 12.4% (inactive). With `N#C[C@@H]1[C@@H](c2ccc(-c3cccc(F)c3)cc2)[C@@H](CO)N1C(=O)NC1CCCC1`, the rescue of myotube length is 3.2% (inactive).

Staying with this assay, now noted: C2C12 myotubes + simvastatin, MHC imaging tube length, 48 h; at 21 µM (top of the series).
As for `COCC(=O)N1[C@H](C#N)[C@@H](c2ccc(-c3cccc(F)c3)cc2)[C@@H]1CO`, the rescue of myotube length is 4.32% (inactive). As for `Cc1noc(C)c1S(=O)(=O)Nc1ccc2c(c1)CC(=O)N([C@H](C)CO)C[C@@H](C)[C@@H](CN(C)Cc1ccc(-c3ccccc3)cc1)O2`, the rescue of myotube length was -14.9% (inactive). For `CCS(=O)(=O)N1[C@H](C#N)[C@@H](c2ccc(-c3cccc(F)c3)cc2)[C@@H]1CO`, the rescue of myotube length was 16.6% (inactive). Consider `N#C[C@@H]1[C@@H](c2ccccc2)[C@H](CO)N1S(=O)(=O)c1ccc(-c2ccccc2)cc1`, for which the rescue of myotube length was 13.9% (inactive). On to `N#C[C@H]1N[C@@H](CO)[C@@H]1c1ccc(-c2cccc(F)c2)cc1`, for which the rescue of myotube length is 8.43% (inactive). As to `C[C@H]1CN([C@@H](C)CO)C(=O)Cc2cc(NS(=O)(=O)c3ccc(Cl)cc3)ccc2O[C@@H]1CN(C)CC1CCCCC1`, the rescue of myotube length is -32.7% (inactive). `C[C@@H]1CN([C@@H](C)CO)C(=O)c2cc(NC(=O)Nc3cccc4ccccc34)ccc2O[C@@H]1CN(C)Cc1ccc(C(=O)Nc2ccccc2N)cc1`: the rescue of myotube length was 20.8% (inactive). For the compound `N#C[C@@H]1[C@@H](c2ccc(C#CC3CCCC3)cc2)[C@H](CO)N1S(=O)(=O)c1ccccc1`, the rescue of myotube length was 4.55% (inactive). With `C[C@@H]1CN([C@@H](C)CO)C(=O)Cc2cc(NC(=O)CCCCCC(=O)Nc3ccccc3N)ccc2O[C@@H]1CN(C)Cc1ccc(Oc2ccccc2)cc1`, the rescue of myotube length is -5.63% (inactive).

Turning to `CCCNC(=O)N1[C@@H](C#N)[C@@H](c2ccc(-c3ccccc3F)cc2)[C@@H]1CO`, the rescue of myotube length is -2.07% (inactive).

As for `CC(C)CC#Cc1cnc2c(c1)C(=O)N([C@H](C)CO)C[C@H](C)[C@@H](CN(C)C(=O)Cc1ccccc1)O2`, the rescue of myotube length is -0.121% (inactive).

The next assay concerns C2C12 myotubes + simvastatin, MHC imaging tube length, 48 h. The assay is described as above.
Conditions: not given
For the compound `CC(C)=CCC/C(C)=C/CC/C(C)=C/CC/C(C)=C/CO`, the AC40 is 4.25 µM. As for `C[C@H]1CN([C@@H](C)CO)C(=O)c2cc(C#Cc3ccncc3)cnc2O[C@@H]1CN(C)CC1CCCC1`, the AC40 is 8.86 µM.

For the compound `C[C@@H]1CN([C@H](C)CO)C(=O)c2cccc(NC(=O)Nc3ccc4c(c3)OCO4)c2O[C@H]1CN(C)Cc1ccc(C(=O)Nc2ccccc2N)cc1`, the AC40 was 0.76 µM. Consider `C[C@H]1CN([C@@H](C)CO)C(=O)c2cc(N(C)C)ccc2O[C@@H]1CN(C)Cc1ccc(C(=O)Nc2ccccc2N)cc1`, for which the AC40 was 1.55 µM. As for `C[C@H](CO)N1C[C@H](C)[C@H](CN(C)CC2CCCCC2)Oc2ccc(NC(=O)CCCCCC(=O)Nc3ccccc3N)cc2CC1=O`, the AC40 was 13.2 µM. For `N#C[C@@H]1[C@@H](c2ccc(-c3ccc(F)cc3)cc2)[C@H](CO)N1C(=O)Cc1ccccc1`, the AC40 was 15 µM. On the same count and under the same terms, the value for `C[C@H](CO)N1C[C@H](C)[C@H](CN(C)Cc2ccc(C(=O)Nc3ccccc3N)cc2)Oc2ccc(N(C)C)cc2C1=O` was 0.581 µM; that for `C[C@H]1CN([C@@H](C)CO)S(=O)(=O)c2ccc(C#CC3CC3)cc2O[C@H]1CN(C)C(=O)Nc1cc(F)ccc1F` was 19.5 µM.
